These results are taken from PMC8431557, “Multilevel Approach for the Treatment of Giardiasis by Targeting Arginine Deiminase” (International Journal of Molecular Sciences, 2021).

In experiment [1] the target is T1, GlADI (giardial arginine deiminase) (Giardia duodenalis, UniProt E2RU36). Also on record: gene GL50803_00112103. The conditions noted are these: 8 mM L-arginine, pH 8.0, 25 °C.
Experiment [2] has as its target T1, GlADI (giardial arginine deiminase). The experiment can be described thus: residual activity after […] h preincubation, GlDH-coupled NADH assay. The format is biochemical. The note with it: covalent (Cys modification); 2 h, pH 8.0, 25 °C. The arrangement: gene GL50803_00112103; recombinant in pET28a(+), E. coli Rosetta 2 (DE3) pLysS; N-terminal His6 tag not cleaved; 580 residues; homodimer; 16 Cys per monomer.

Experiment [3] has the same target. Briefly: residual activity after timed preincubation, GlDH-coupled NADH assay; slope of k1 vs concentration. It counts as biochemical. The arrangement: gene GL50803_00112103; recombinant in pET28a(+), E. coli Rosetta 2 (DE3) pLysS; N-terminal His6 tag not cleaved; 580 residues; homodimer; 16 Cys per monomer. The note with it: covalent (Cys modification), second-order inactivation rate constant, pH 8.0, 25 °C.

T1 sequence (E2RU36 entry or part of it): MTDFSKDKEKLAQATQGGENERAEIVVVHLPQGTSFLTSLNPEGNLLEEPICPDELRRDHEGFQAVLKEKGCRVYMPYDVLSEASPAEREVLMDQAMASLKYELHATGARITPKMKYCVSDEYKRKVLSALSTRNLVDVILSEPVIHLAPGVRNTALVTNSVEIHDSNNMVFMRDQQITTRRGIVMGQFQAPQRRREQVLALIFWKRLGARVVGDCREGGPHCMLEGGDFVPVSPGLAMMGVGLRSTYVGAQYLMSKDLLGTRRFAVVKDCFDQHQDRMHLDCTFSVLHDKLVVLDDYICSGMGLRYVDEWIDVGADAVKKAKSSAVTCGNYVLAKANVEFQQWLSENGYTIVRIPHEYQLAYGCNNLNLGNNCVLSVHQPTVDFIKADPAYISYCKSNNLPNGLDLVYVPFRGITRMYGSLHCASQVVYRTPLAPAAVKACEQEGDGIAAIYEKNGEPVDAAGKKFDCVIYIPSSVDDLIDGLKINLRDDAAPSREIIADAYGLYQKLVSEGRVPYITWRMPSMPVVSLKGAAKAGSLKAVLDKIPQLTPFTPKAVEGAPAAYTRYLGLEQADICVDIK

As to `N=C(N)NCCC[C@H](N)C(=O)O` [L-arginine], the “GlDH-coupled NADH oxidation at 340 nm” value in experiment [1] was “monitoring the conversion of L-arginine to citrulline”.

On to `O=C(O)c1cc(SSc2ccc([N+](=O)[O-])c(C(=O)O)c2)ccc1[N+](=O)[O-]` [DTNB, dithio-bis-nitrobenzoic acid], for which, in experiment [2], the “residual activity (%)” value was “caused inactivation of the enzyme in a dose-dependent manner (Figure 1E,F)”.

With `CC(=C(CCOC(=O)C(C)C)SSC(CCOC(=O)C(C)C)=C(C)N(C=O)Cc1cnc(C)nc1N)N(C=O)Cc1cnc(C)nc1N` (stereo in doubt) [sulbutiamine], the “residual activity (%)” value in experiment [2] is “all of these drugs were able to inhibit recombinant GlADI in vitro in a dose-dependent manner”.

In the case of `COCCCOc1ccnc(C[S+]([O-])c2nc3ccccc3[nH]2)c1C` (stereo not drawn) [rabeprazole], the k2 in experiment [3] (5-110 µM) was 6.72 ± 0.2 M⁻¹ s⁻¹.

Regarding `COc1ccc2[nH]c([S+]([O-])Cc3ncc(C)c(OC)c3C)nc2c1` (stereo not drawn) [omeprazole], the “residual activity (%)” value in experiment [2] is on record as “all of these drugs were able to inhibit recombinant GlADI in vitro in a dose-dependent manner”.

On to `CSS(C)(=O)=O` [MMTS, s-methyl methanethiosulfonate], for which the k2 in experiment [3] (2.5-85 µM) was determined as 15.68 ± 0.9 M⁻¹ s⁻¹.
